Experimental data taken from patent publication US10139415B2, “Method for predicting responsiveness to compound inhibiting MAPK signal transduction pathway” (DAIICHI SANKYO COMPANY, LIMITED, priority 2013, dated 2018).
Where two headings read alike, the source gives them in different places. Values belong to the compound of their own block, whether it stands above or below them.

Columns and labels:
MEK = conditions: cited from earlier work
DLD-1 cells = assay: cell cycle measurement / apoptosis induction (PI staining, flow cytometer); format: cell-based; conditions: at the concentration that completely inhibited phosphorylation of ERK, 48 hours
Description: (§1) A cell cycle measurement was performed by propidium iodide (PI) staining as described below. First, cells were subjected to drug treatment after 24 hours from seeding thereof in a 6-well plate. After collecting the culture medium and trypsinized cells, they were subjected to centrifugation at 1,000 g for 5 minutes, and the supernatant was removed. 1 mL of PBS^− was added to suspend the cells. The suspension was transferred to a 1.5-mL tube and then subjected to centrifugation treatment at 13,000 g for 1 minute, and the supernatant was removed. 200 μL of PBS^− was added to the residue to suspend the cells, and 1 mL of ice-cold 70% ethanol was added. Then, the cells were vortexed and immobilized at 4° C.
(§2) The immobilized cells were subjected to centrifugation at 1,000 g for 5 minutes, and the supernatant was removed. 1 mL of a PBS^− solution containing 10 μg/mL of RNase was added to the residue to suspend the cells, which was left to stand still at 37° C. for 20 minutes. After that, centrifugation was performed for 5 minutes, and then the supernatant was removed. […] of a PBS^− solution containing PI (50 μg/mL, manufactured by Wako) was added to the residue to suspend the cells. The total volume thereof was passed through a nylon mesh (φ=42 μm) and used as a sample. An intracellular DNA content was detected with PMT4 of a flow cytometer (manufactured by Beckman Coulter) to measure a cell cycle.
(§3) 48 hours after the drug treatment, the cells were collected and subjected to ethanol fixation and PI staining to measure a DNA content with a flow cytometer. […] In addition, the expression amount of a target molecule being phosphorylated was calculated compared to the expression amount of a target molecule to evaluate the influence on a cell cycle at such a concentration of inhibiting the expression of the phosphorylation of the target molecule by 95% or more.
(§4) 48 hours after the drug treatment, the cells were collected and subjected to ethanol fixation and PI staining to measure a DNA content with a flow cytometer. In addition, in order to measure target molecule inhibitory activity in the drug-treated cells, the expression of ERK, phosphorylated ERK, MEK, phosphorylated MEK, and actin in the cells was evaluated by western blotting 24 hours after the drug treatment. In addition, the expression amount of a target molecule being phosphorylated was calculated compared to the expression amount of a target molecule to evaluate the influence of each inhibitor on a cell cycle at such a concentration that the expression of the phosphorylation of the target molecule was inhibited by 95% or more.

SW48 cells [1] = assay: as above; format: cell-based; conditions: at the concentration that completely inhibited phosphorylation of ERK, 48 hours
Description: as §1, §2, §3, §4

HCT_116 cells [2] = assay: as above; format: cell-based; conditions: at the concentration that completely inhibited phosphorylation of ERK (MEK and ERK for SB590885), 48 hours
Description: as §1, §2, §3, §4

HT29 cells = assay: as above; format: cell-based; conditions: at the concentration that completely inhibited phosphorylation of ERK, 48 hours
Description: as §1, §2, §3, §4

A375 cells = assay: as above; format: cell-based
Description: as §1, §2, §3, §4

[3] = tested on: malignant melanoma having an active BRAF mutation; conditions: patients with malignant melanoma having an active BRAF mutation, clinical trial; cited from earlier work
24 kinds of cell lines = conditions: GI50
Description: (§5) A cell growth-suppressive activity test was performed in both of two-dimensional culture and three-dimensional culture. First, a plate for three-dimensional culture was produced. Specifically, poly(2-hydroxyethyl methacrylate) (hereinafter abbreviated as poly-HEMA, manufactured by Sigma) was added to 95% ethanol so that the concentration was 5 mg/mL, and dissolved therein at 37° C. overnight. The solution was used as a poly-HEMA solution. The solution was loaded into a 96-well plate (manufactured by Nunc) at 50 μL/well. The plate was dried at 37° C. to produce a plate for three-dimensional culture coated with poly-HEMA.
The two-dimensional culture (hereinafter sometimes referred to as 2D culture) and the three-dimensional culture (hereinafter sometimes referred to as 3D culture) were performed by seeding the cells in a 96-well plate at 1×10^3 cells/150 μL/well and 2×10^3 cells/75 μL/well, respectively, and performing drug treatment on the following day. […] Cell growth was measured by measuring intracellular ATP amounts at the time of the drug treatment and 72 hours after the drug treatment. […] The total volume of each well was transferred to a white 96-well plate (manufactured by Nunc) and measured for its light emission intensity with a Wallac 1420 multilabel counter (manufactured by Perkin Elmer). […]

colo-201 cells = assay: cell growth-suppressive activity test; format: cell-based; conditions: 2D and 3D culture, 72 hours, CellTiter-Glo
Description: as §5
(§6) The two-dimensional culture (hereinafter sometimes referred to as 2D culture) and the three-dimensional culture (hereinafter sometimes referred to as 3D culture) were performed by seeding the cells in a 96-well plate at 1×10^3 cells/150 μL/well and 2×10^3 cells/75 μL/well, respectively, and performing drug treatment on the following day. The total volume was set to 200 μL in the two-dimensional culture, and the total volume was set to 100 μL in the three-dimensional culture. Cell growth was measured by measuring intracellular ATP amounts at the time of the drug treatment and 72 hours after the drug treatment. Specifically, after the removal of the culture medium at 100 μL/well, CellTiter-Glo (manufactured by Promega) was added at 50 μL/well in the two-dimensional culture, and CellTiter-Glo was added at 50 μL/well in the three-dimensional culture. After the addition, the plate was shaken with a shaker for 2 minutes and left to stand still at room temperature for 10 minutes. The total volume of each well was transferred to a white 96-well plate (manufactured by Nunc) and measured for its light emission intensity with a Wallac 1420 multilabel counter (manufactured by Perkin Elmer). From the resultant light emission amount, a growth ratio (Growth (%)) relative to a non-drug-treated sample after 72 hours was determined using the following mathematical formula 1 and mathematical formula 2.

SW48 cells [4] = assay: cell growth-suppressive activity test; format: cell-based; conditions: 2D and 3D culture, 72 hours, CellTiter-Glo
Description: as §5, §6

HCT_116 cells [5] = assay: cell growth-suppressive activity test; format: cell-based; conditions: 2D and 3D culture, 72 hours, CellTiter-Glo
Description: as §5, §6

colo-205 cells = assay: cell growth-suppressive activity test; format: cell-based; conditions: 2D and 3D culture, 72 hours, CellTiter-Glo
Description: as §5, §6

SK-MEL-1 cells = assay: cell growth-suppressive activity test; format: cell-based; conditions: 2D and 3D culture, 72 hours, CellTiter-Glo
Description: as §5, §6

[6] = tested on: phosphorylation of MEK and ERK; assay: MEK and ERK phosphorylation inhibition by western blotting; format: cell-based; conditions: any of the cell lines (A375, HT29, DLD-1, HCT_116, SW48), 0.3-10 μM
Description: as §4

Compound: Cn1cnc2c(F)c(Nc3ccc(Br)cc3Cl)c(C(=O)NOCCO)cc21 [AZD6244]
IC50 (MEK; non-ATP-competitive manner, read-out: MEK inhibition, IC50 value): ~0.012 µM

Compound: O=C(NOCC1CC1)c1ccc(F)c(F)c1Nc1ccc(I)cc1Cl [PD184352]
apoptosis induction / influence on cell cycle (sub-G1 population) (DLD-1 cells): did not exhibit any particular influence | apoptosis induction / influence on cell cycle (sub-G1 population) (SW48 cells [1]): apoptosis was induced | apoptosis induction / influence on cell cycle (sub-G1 population) (HCT_116 cells [2]): apoptosis was induced | apoptosis induction / influence on cell cycle (sub-G1 population) (HT29 cells): remarkable G1 arrest was induced but no apoptosis was induced | apoptosis induction / influence on cell cycle (sub-G1 population) (A375 cells; at the concentration that completely inhibited phosphorylation of ERK (MEK and ERK for SB590885), 48 hours): remarkable G1 arrest was induced but no apoptosis was induced | apoptosis induction (A375 cells; concentration higher than that completely inhibiting phosphorylation of ERK): Apoptosis was induced

Compound: O=C(NOC[C@H](O)CO)c1ccc(F)c(F)c1Nc1ccc(I)cc1F [PD0325901]
clinical response, total of a partial response and a complete response [3]: about 10%

sensitivity in growth-suppressive activity test (from GI50) (colo-201 cells): high sensitivity | sensitivity in growth-suppressive activity test (from GI50) (SW48 cells [4]): high sensitivity | sensitivity in growth-suppressive activity test (from GI50) (HCT_116 cells [5]): high sensitivity | sensitivity in growth-suppressive activity test (from GI50) (colo-205 cells): high sensitivity | sensitivity in growth-suppressive activity test (from GI50) (SK-MEL-1 cells): high sensitivity
Compound: N#CC(=C(/N)Sc1ccccc1N)/C(C#N)=C(\N)Sc1ccccc1N [U0126]
tendency of drug sensitivity over the cell line panel compared with SMK-17 (24 kinds of cell lines): 23 out of the 24 kinds of cell lines exhibited a tendency of drug sensitivity similar to that in the case of SMK-17

Compound: CNC(=O)c1cc(Oc2ccc(NC(=O)Nc3ccc(Cl)c(C(F)(F)F)c3)cc2)ccn1 [sorafenib]
inhibitory effect on the phosphorylation of MEK and ERK [6]: did not provide complete inhibitory effects
